The supplement of paper PMC10627819

Key:
[1] = test system: S. aureus DSM 20231; test: fitness (endpoint OD595 vs no drug) (fraction); higher = more growth
In short: (§1)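 Bacterial fitness was scored as optical density at the stationary-phase transition relative to the robust mean of no-drug control wells. Scores are capped at 1. The growth data were OD595 readings every 30 min for 14 h at 37 °C, background-subtracted against the first reading, from 384-well plates inoculated at OD595 0.01 in TSB, LB Lennox or CY.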

[2] = test system: S. pneumoniae D39V; test: as above
In short: as §1
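Further: OD595 on entry to stationary phase over no-drug wells; at most 1.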

CC(=O)Oc1ccccc1C(=O)O [Acetylsalicylic acid] + CO/N=C(\C(=O)N[C@@H]1C(=O)N2C(C(=O)[O-])=C(C[N+]3(C)CCCC3)CS[C@H]12)c1csc(N)n1 [Cefepime]
fitness
Settings	first compound 250 µg/mL	first compound 500 µg/mL	first compound 1000 µg/mL
[1], partner 0.125 µg/mL	0.856	0.712	0.624
[1], partner 0.25 µg/mL	0.83	0.683	–
[1], partner 0.5 µg/mL	0.78	0.666	0.612
[2], partner 0.007 µg/mL	0.988	≥ 1	0.927
[2], partner 0.0078 µg/mL	0.992	≥ 1	0.915
[2], partner 0.014 µg/mL	0.99	0.995	0.969
[2], partner 0.0155 µg/mL	≥ 1	≥ 1	0.898
[2], partner 0.028 µg/mL	0.927	0.896	0.865
[2], partner 0.031 µg/mL	0.964	≥ 1	0.888

CC(=O)Oc1ccccc1C(=O)O [Acetylsalicylic acid] + CO[C@@]12[C@H](COC(N)=O)C3=C(C(=O)C(C)=C(N)C3=O)N1C[C@@H]1N[C@@H]12 [Mitomycin C]
fitness
Settings	first compound 250 µg/mL	first compound 500 µg/mL	first compound 1000 µg/mL
[1], partner 0.0156 µg/mL	0.731	0.612	0.446
[1], partner 0.0312 µg/mL	0.674	0.579	–
[1], partner 0.0625 µg/mL	0.559	0.483	–
[2], partner 0.001075 µg/mL	≥ 1	≥ 1	≥ 1
[2], partner 0.002 µg/mL	0.703	0.673	0.416
[2], partner 0.00215 µg/mL	0.888	0.904	0.868
[2], partner 0.004 µg/mL	0.733	0.657	0.426
[2], partner 0.0043 µg/mL	0.8	0.811	0.774
[2], partner 0.008 µg/mL	0.548	0.454	0.335

CC(=O)Oc1ccccc1C(=O)O [Acetylsalicylic acid] + COc1c(N2C[C@@H]3CCCN[C@@H]3C2)c(F)cc2c(=O)c(C(=O)O)cn(C3CC3)c12 [Moxifloxacin]
fitness
Settings	first compound 250 µg/mL	first compound 500 µg/mL	first compound 1000 µg/mL
[1], partner 0.0075 µg/mL	0.799	0.703	0.577
[1], partner 0.015 µg/mL	0.7	0.656	0.58
[1], partner 0.03 µg/mL	0.649	0.623	0.578
[2], partner 0.005 µg/mL	0.975	0.96	–
[2], partner 0.01 µg/mL	0.98	0.987	0.812
[2], partner 0.02 µg/mL	0.932	0.94	0.829
[2], partner 0.0312 µg/mL	0.188	0.192	0.216
[2], partner 0.0625 µg/mL	0.17	0.142	0.137
[2], partner 0.125 µg/mL	0.0443	0.0397	0.0308

fitness, [1], one replicate
Settings	first compound 250 µg/mL	first compound 500 µg/mL	first compound 1000 µg/mL
partner 0.06 µg/mL	0.647	0.627	0.584
partner 0.12 µg/mL	0.532	0.536	0.529

CC(=O)Oc1ccccc1C(=O)O [Acetylsalicylic acid] + COc1cc(Cc2cnc(N)nc2N)cc(OC)c1OC [Trimethoprim]
fitness, [1]
Settings	partner 0.125 µg/mL	partner 0.25 µg/mL	partner 0.5 µg/mL	partner 1 µg/mL
first compound 250 µg/mL	0.582	0.516	0.225	0.0606
first compound 500 µg/mL	–	–	0.276	0.0647
first compound 1000 µg/mL	0.4	–	0.23	0.0318

CC(=O)Oc1ccccc1C(=O)O [Acetylsalicylic acid] + COc1ccc(C[C@H](N)C(=O)N[C@H]2[C@@H](O)[C@H](n3cnc4c(N(C)C)ncnc43)O[C@@H]2CO)cc1 [Puromycin]
fitness
Settings	partner 0.39 µg/mL	partner 0.78 µg/mL	partner 1 µg/mL	partner 1.56 µg/mL	partner 2 µg/mL	partner 4 µg/mL
[1], first compound 250 µg/mL	0.894	0.947	–	0.88	–	–
[1], first compound 500 µg/mL	0.804	0.768	–	0.799	–	–
[2], first compound 250 µg/mL	–	–	≥ 1	–	0.954	0.898
[2], first compound 500 µg/mL	–	–	0.915	–	0.935	0.836
[2], first compound 1000 µg/mL	–	–	0.889	–	0.815	0.622

fitness, [1], one replicate
Settings	first compound 250 µg/mL	first compound 500 µg/mL	first compound 1000 µg/mL
partner 3.12 µg/mL	0.84	0.791	0.0591
partner 6.24 µg/mL	0.821	0.767	0.0807

CC(=O)Oc1ccccc1C(=O)O [Acetylsalicylic acid] + COc1cccc2c1C(=O)c1c(O)c3c(c(O)c1C2=O)C[C@@](O)(C(=O)CO)C[C@@H]3O[C@H]1C[C@H](N)[C@H](O)[C@H](C)O1 [Doxorubicin]
fitness
Settings	first compound 250 µg/mL	first compound 500 µg/mL	first compound 1000 µg/mL
[1], partner 0.625 µg/mL	0.835	0.759	0.607
[1], partner 1.25 µg/mL	0.798	0.725	–
[1], partner 2.5 µg/mL	0.783	0.71	0.586
[2], partner 0.25 µg/mL	0.94	0.893	0.724
[2], partner 0.5 µg/mL	0.945	0.904	0.751
[2], partner 1 µg/mL	0.889	0.882	0.763
